We go through 14 molecules from patent publication EP4667466A1, “PROTAC DEGRADERS OF MLLT1 AND/OR MLLT3” (priority 2024, dated 2025).

SMILES strings stand for the structures. Some results are limits rather than exact numbers.

This test addresses T1, MLLT1 (Homo sapiens, UniProt Q03111).
T1 construct: endogenous in cells; host or cells: MV4-11 (ATCC CRL-9591)
T1 sequence (Q03111 1-559): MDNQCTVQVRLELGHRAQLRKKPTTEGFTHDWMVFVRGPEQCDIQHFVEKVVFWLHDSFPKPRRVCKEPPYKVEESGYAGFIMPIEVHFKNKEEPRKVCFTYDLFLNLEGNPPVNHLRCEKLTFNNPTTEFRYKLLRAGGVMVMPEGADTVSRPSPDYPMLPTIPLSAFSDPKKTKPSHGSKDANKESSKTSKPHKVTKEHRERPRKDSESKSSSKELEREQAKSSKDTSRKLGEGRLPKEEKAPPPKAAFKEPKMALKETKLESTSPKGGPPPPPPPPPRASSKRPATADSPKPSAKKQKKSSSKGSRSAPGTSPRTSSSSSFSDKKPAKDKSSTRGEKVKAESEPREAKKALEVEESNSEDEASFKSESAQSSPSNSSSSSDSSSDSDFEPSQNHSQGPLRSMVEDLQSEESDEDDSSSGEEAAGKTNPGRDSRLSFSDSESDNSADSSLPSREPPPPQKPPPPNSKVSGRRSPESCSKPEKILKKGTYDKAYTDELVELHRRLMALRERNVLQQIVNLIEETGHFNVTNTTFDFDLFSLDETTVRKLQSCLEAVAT
Description: MLLT1 degradation assay (JESS automated chemiluminescent detection) in MV4-11 cells. The class given is cell-based. Conditions: 24h, with respect to DMSO control. On the procedure: MLLT1 degradation efficacy of compounds was tested in an automated chemiluminescent detection system (JESS, Cat# 004-650). MV4-11 (#CRL-9591, ATCC) cells were seeded at a density of 1.2 million cells/well in a non-treated 6-well cell culture plate in 2.4 mL of complete medium (IMDM + 10% FBS + 1X Penicillin-Streptomycin). 10 mM DMSO stocks were prepared, and cells were treated with three concentrations of test compounds viz. 1000, 100 and 10 nM at a final DMSO concentration of 0.1% and incubated for 24h at 37°C, 5% CO2. Post incubation, cells were centrifuged, washed with HBSS and lysed in 70 uL of RIPA buffer supplemented with Protease inhibitors (sc-24948; Santa Cruz). Subsequently, protein estimation was done using BCA protein assay kit (23225; Pierce). 4 ug protein lysate (4 uL of 1ug/uL lysate) was loaded into each well of the JESS cartridge (SM-WO01; Bio-techne) and the JESS run was performed using 1:900 dilution of anti-human MLLT1 antibody (14893; Cell signaling technology) and 1:1200 dilution of anti-human GAPDH antibody (2118; Cell signaling technology) with anti-rabbit secondary detection module (DM-001; Bio-Techne). Post run, data were analysed using "Compass for SW" software for chemiluminescent detection. The peak area for each band was used for the calculation of MLLT1 degradation with respect to DMSO control. Data is shown as "MLLT1 % degradation". Category A: A ≥ 75% degradation Category B: 50% ≤ B < 75% degradation Category C: 25% ≤ C < 50% degradation Category D: D < 25% degradation Table 1

Turning to `Cc1c(C#CCCCCCn2nc(C)c3ccc(C(=O)Nc4cc5[nH]c([C@H]6CCCN6C)cc5cn4)cc32)cccc1C(=O)NC1CCC(=O)NC1=O` (stereo partly drawn) [Example 35, 1-(7-(3-((2,6-dioxopiperidin-3-yl)carbamoyl)-2-methylphenyl)hept-6-yn-1-yl)-3-methyl-N-(2-((R)-1-methylpyrrolidin-2-yl)-1H-pyrrolo[3,2-c]pyridin-6-yl)-1H-indazole-6-carboxamide], the inhibition (in general, how much of the control response was suppressed) at 0.01 µM was 25 to 50%; the inhibition at 0.1 µM was below 25%; the inhibition at 1 µM lay in the range of 50 to 75%.

As to `Cc1nn(CCCCCCCC#Cc2cccc3c2CN(C2CCC(=O)NC2=O)C3=O)c2cc(C(=O)Nc3cc4[nH]c([C@H]5CCCN5C)c(Cl)c4cn3)ccc12` (stereo partly drawn) [Example 53, N-(3-chloro-2-((R)-1-methylpyrrolidin-2-yl)-1H-pyrrolo[3,2-c]pyridin-6-yl)-1-(9-(2-(2,6-dioxopiperidin-3-yl)-1-oxoisoindolin-4-yl)non-8-yn-1-yl)-3-methyl-1H-indazole-6-carboxamide], the inhibition at 0.01 µM is at least 75%, the inhibition at 0.1 µM was at least 75% and the inhibition at 1 µM is at least 75%.

With `Cc1c(OCCCCCCn2nc(C)c3ccc(C(=O)Nc4cc5[nH]c([C@H]6CCCN6C)cc5cn4)cc32)cccc1N1CCC(=O)NC1=O` [Example 10, 1-16-[3-(2,4-dioxo-1,3-diazinan-1-yl)-2-methylphenoxy]hexyll-3-methyl-N-{2-[(2R)-1-methylpyrrolidin-2-yl]-1H-pyrrolo [3,2-c]pyridin-6-yl}indazole-6-carboxamide], the inhibition at 0.01 µM was 25 to 50%, the inhibition at 0.1 µM was in the range of 25 to 50% and the inhibition at 1 µM lay within 25 to 50%.

With `Cc1nn(CCCCCCCC=C(Cl)c2ccc3c(c2)n(C)c(=O)n3C2CCC(=O)NC2=O)c2cc(C(=O)Nc3cc4[nH]c([C@H]5CCCN5C)cc4cn3)ccc12` (mixture of isomers) [Example 40], the inhibition at 0.01 µM was at least 75%, the inhibition at 0.1 µM is at least 75% and the inhibition at 1 µM was at least 75%.

In turn, `Cc1nn(CCCCCCCC#Cc2cc3c(cc2F)C(=O)N(C2CCC(=O)NC2=O)C3)c2cc(C(=O)Nc3cc4[nH]c([C@H]5CCCN5C)cc4cn3)ccc12` (stereo partly drawn) [Example 60, 1-(9-(2-(2,6-dioxopiperidin-3-yl)-6-fluoro-1-oxoisoindolin-5-yl)non-8-yn-1-yl)-3-methyl-N-(2-((R)-1-methylpyrrolidin-2-yl)-1H-pyrrolo[3,2-c]pyridin-6-yl)-1H-indazole-6-carboxamide] registered an inhibition at 0.01 µM of 25 to 50%, an inhibition at 0.1 µM of 50 to 75% and an inhibition at 1 µM of at least 75%.

Regarding `Cc1nn(C2CCN(CC3CCN(c4cc5c(cc4F)C(=O)N(C4CCC(=O)NC4=O)C5=O)CC3)CC2)c2cc(C(=O)Nc3cc4[nH]c([C@H]5CCCN5C)cc4cn3)ccc12` (stereo partly drawn) [Example 69, 1-(1-((1-(2-(2,6-dioxopiperidin-3-yl)-6-fluoro-1,3-dioxoisoindolin-5-yl)piperidin-4-yl)methyl)piperidin-4-yl)-3-methyl-N-(2-((R)-1-methylpyrrolidin-2-yl)-1H-pyrrolo[3,2-c]pyridin-6-yl)-1H-indazole-6-carboxamide], the inhibition at 0.01 µM is at least 75%, the inhibition at 0.1 µM is at least 75% and the inhibition at 1 µM is at least 75%.

In turn, `Cc1nn(CCCCCCCC#Cc2ccc(C(=O)N[C@H]3CCC(=O)NC3=O)nc2)c2cc(C(=O)Nc3cc4[nH]c([C@H]5CCCN5C)cc4cn3)ccc12` [Example 41, 1-(9-(6-(((S)-2,6-dioxopiperidin-3-yl)carbamoyl)pyridin-3-yl)non-8-yn-1-yl)-3-methyl-N-(2-((R)-1-methylpyrrolidin-2-yl)-1H-pyrrolo [3,2-c]pyridin-6-yl)-1H-indazole-6-carboxamide] returned an inhibition at 0.01 µM below 25%, an inhibition at 0.1 µM of 25 to 50% and an inhibition at 1 µM of 50 to 75%.

The molecule `Cc1nn(CCCCCCCC#Cc2cc3c(cc2F)c(N2CCC(=O)NC2=O)nn3C)c2cc(C(=O)Nc3cc4[nH]c([C@H]5CCCN5C)cc4cn3)ccc12` [Example 65, (R)-1-(9-(3-(2,4-dioxotetrahydropyrimidin-1(2H)-yl)-5-fluoro-1-methyl-1H-indazol-6-yl)non-8-yn-1-yl)-3-methyl-N-(2-(1-methylpyrrolidin-2-yl)-1H-pyrrolo[3,2-c]pyridin-6-yl)-1H-indazole-6-carboxamide] yielded an inhibition at 0.01 µM of 25 to 50%, an inhibition at 0.1 µM of 50 to 75% and an inhibition at 1 µM of at least 75%.

`Cc1nn(CC#Cc2cccc3c2CN(C2CCC(=O)NC2=O)C3=O)c2cc(C(=O)Nc3cc4[nH]c([C@H]5CCCN5C)cc4cn3)ccc12` (stereo partly drawn) [Example 72, 1-(3-(2-(2,6-dioxopiperidin-3-yl)-1-oxoisoindolin-4-yl)prop-2-yn-1-yl)-3-methyl-N (2-((R)-1-methylpyrrolidin-2-yl)-1H pyrrolo[3,2-c]pyridin-6-yl)-1H-indazole-6-carboxamide] had an inhibition at 0.01 µM of at least 75%, an inhibition at 0.1 µM of at least 75% and an inhibition at 1 µM of 50 to 75%.

In turn, `Cc1nn(CCCCCCCC#Cc2ccc3c(c2)n(C)c(=O)n3C2CCC(=O)NC2=O)c2cc(C(=O)Nc3cc4[nH]c([C@H]5CCCN5C)cc4cn3)ccc12` (stereo partly drawn) [Example 39, 1-(9-(1-(2,6-dioxopiperidin-3-yl)-3-methyl-2-oxo-2,3-dihydro-1H benzo[d]imidazol-5-yl)non-8-yn-1-yl)-3-methyl-N-(2-((R)-1-methylpyrrolidin-2-yl)-1H-pyrrolo[3,2-c]pyridin-6-yl)-1H-indazole-6-carboxamide] came in with an inhibition at 0.01 µM of at least 75%, an inhibition at 0.1 µM of at least 75% and an inhibition at 1 µM of at least 75%.

On to `Cc1nn(CCCCCC#Cc2cccc3c2C(=O)N(C2CCC(=O)NC2=O)C3=O)c2cc(C(=O)Nc3cc4[nH]c([C@H]5CCCN5C)cc4cn3)ccc12` (stereo partly drawn) [Example 33, 1-(7-(2-(2,6-dioxopiperidin-3-yl)-1,3-dioxoisoindolin-4-yl)hept-6-yn-1-yl)-3-methyl-N-(2-((R)-1-methylpyrrolidin-2-yl)-1H-pyrrolo[3,2-c]pyridin-6-yl)-1H-indazole-6-carboxamide], for which the inhibition at 0.01 µM was in the range of 50 to 75%, the inhibition at 0.1 µM is 50 to 75% and the inhibition at 1 µM is at least 75%.

`CN1CCC[C@@H]1c1cc2cnc(NC(=O)c3ccc4c(cnn4CCCCCCCC#Cc4cccc5c4CN(C4CCC(=O)NC4=O)C5=O)c3)cc2[nH]1` (stereo partly drawn) [Example 38, 1-(9-(2-(2,6-dioxopiperidin-3-yl)-1-oxoisoindolin-4-yl)non-8-yn-1-yl)-N-(2-((R)-1-methylpyrrolidin-2-yl)-1H-pyrrolo[3,2-c]pyridin-6-yl)-1H-indazole-5-carboxamide] gave an inhibition at 0.01 µM of 50 to 75%, an inhibition at 0.1 µM of at least 75% and an inhibition at 1 µM of 50 to 75%.

`Cc1nn(CCCCN2CCN(c3ccc4c(c3)C(=O)N(C3CCC(=O)NC3=O)C4=O)CC2)c2cc(C(=O)Nc3cc4[nH]c([C@@H]5CCCN5C)cc4cn3)ccc12` (stereo partly drawn) [Example 20, 1-(4-{4-[2-(2,6-dioxopiperidin-3-yl)-1,3-dioxoisoindol-5-yl]piperazin-1-yl}butyl)-3-methyl-N-{2-[(2S)-1-methylpyrrolidin-2-yl]-1H-pyrrolo[3,2-c]pyridin-6-yl}indazole-6-carboxamide] showed an inhibition at 0.01 µM of 25 to 50%, an inhibition at 0.1 µM of 25 to 50% and an inhibition at 1 µM of at least 75%.

As to `Cc1nn(C2CCN(CC#Cc3cccc4c3CN(C3CCC(=O)NC3=O)C4=O)CC2)c2cc(C(=O)Nc3cc4[nH]c([C@H]5CCCN5C)cc4cn3)ccc12` (stereo partly drawn) [Example 68, 1-(1-(3-(2-(2,6-dioxopiperidin-3-yl)-1-oxoisoindolin-4-yl)prop-2-yn-1-yl)piperidin-4-yl)-3-methyl-N-(2-((R)-1-methylpyrrolidin-2-yl)-1H-pyrrolo[3,2-c]pyridin-6-yl)-1H-indazole-6-carboxamide], the inhibition at 0.01 µM was at least 75%, the inhibition at 0.1 µM was at least 75% and the inhibition at 1 µM fell in the range of 50 to 75%.
